Test [1] concerns the target T1, 3-phosphoinositide-dependent protein kinase 1 (Homo sapiens) (UniProt O15530).
T1 sequence (whole entry): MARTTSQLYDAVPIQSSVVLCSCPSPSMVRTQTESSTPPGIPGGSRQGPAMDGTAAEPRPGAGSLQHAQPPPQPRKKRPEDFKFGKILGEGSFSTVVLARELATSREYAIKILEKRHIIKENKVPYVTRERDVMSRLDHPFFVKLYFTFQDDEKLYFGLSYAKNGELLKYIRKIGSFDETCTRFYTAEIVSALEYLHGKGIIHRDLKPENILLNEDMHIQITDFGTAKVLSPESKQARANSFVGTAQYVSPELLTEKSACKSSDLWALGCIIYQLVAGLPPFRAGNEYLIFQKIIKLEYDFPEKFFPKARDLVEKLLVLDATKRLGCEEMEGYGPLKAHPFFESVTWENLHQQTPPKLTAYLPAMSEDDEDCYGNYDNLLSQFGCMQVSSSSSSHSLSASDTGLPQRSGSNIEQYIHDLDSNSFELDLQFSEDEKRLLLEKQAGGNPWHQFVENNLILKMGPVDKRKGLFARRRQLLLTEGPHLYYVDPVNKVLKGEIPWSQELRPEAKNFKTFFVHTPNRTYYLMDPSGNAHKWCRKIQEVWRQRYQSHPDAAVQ
As to the kind of experiment: Agonist activity at PDK1 (unknown origin) using T308tide as substrate assessed as concentration required to elicit 50% response in presence of [gamma-32P]ATP.

Test [2] has as its target T2, 3-phosphoinositide-dependent protein kinase 1 (Homo sapiens, UniProt O15530).
T2 sequence (O15530 whole entry): T1 sequence (whole entry)
As to the kind of experiment: Inhibition of recombinant PDK1 (unknown origin) using RPRAATF peptide as substrate assessed as substrate phosphorylation by scintillation counting analysis in presence of [gamma-32P]ATP.

Test [3] concerns the target T1, 3-phosphoinositide-dependent protein kinase 1 (Homo sapiens). As to the kind of experiment: Agonist activity at human N-terminal His6-tagged PDK1 amino acid residues 51 to 359 expressed in insect sf21 cells using T308tide as substrate at 313 uM incubated for 60 mins prior to substrate addition measured after 60 mins by ATP depletion assay.
A further test relates to LNCaP. As to the kind of experiment: Antiproliferative activity against PTEN-deficient human LNCAP cells after 72 hrs by ATP ViaLight assay. The test is classed as functional, cell-based.
Another test deals with LS-513. As to the kind of experiment: Antiproliferative activity against human LS513 cells harboring KRAS mutant after 72 hrs by ATP ViaLight assay. The test is classed as functional, cell-based. The following applies: LS-513, 72 h.
Test [4] is described as follows: Antiproliferative activity against human NCI-H1915 cells harboring KRAS mutant after 72 hrs by ATP ViaLight assay. The test is classed as functional, cell-based. The following applies: NCI-H1915, 72 h.
For another test, the system named is MDA-MB-453. As to the kind of experiment: Antiproliferative activity against human MDA-MB-453 cells harboring PI3KCA mutant after 72 hrs by ATP ViaLight assay. The note with it: MDA-MB-453, 72 h. The test is classed as functional, cell-based.
Test [5] can be described thus: Antiproliferative activity against PTEN-deficient human U87 cells after 72 hrs by ATP ViaLight assay. The test is classed as functional, cell-based, U-87MG ATCC. The note with it: U-87 MG.
For another test, the system named is HCT-116. As to the kind of experiment: Antiproliferative activity against human HCT116 cells harboring PI3KCA/KRAS double mutant after 72 hrs by ATP ViaLight assay. The test is classed as functional, cell-based. The following applies: HCT-116, 72 h.
In another test the test system is MDA-MB-231. As to the kind of experiment: Antiproliferative activity against human MDA-MB-231 cells harboring KRAS mutant after 72 hrs by ATP ViaLight assay. In kind it is functional, cell-based. The following applies: MDA-MB-231, 72 h.
In another test the test system is PC-3. As to the kind of experiment: Antiproliferative activity against PTEN-deficient human PC3 cells after 72 hrs by ATP ViaLight assay. The note with it: PC-3, 72 h. In kind it is functional, cell-based.
The next test relates to BT-474. As to the kind of experiment: Antiproliferative activity against human BT474 cells harboring PI3KCA mutant after 72 hrs by ATP ViaLight assay. The test is classed as functional, cell-based. The note with it: BT-474, 72 h.
Another test relates to UMC-11. As to the kind of experiment: Antiproliferative activity against human UMC11 cells after 72 hrs by ATP ViaLight assay. The test is classed as functional, cell-based. The note with it: UMC-11, 72 h.
In another test the test system is A-427. As to the kind of experiment: Antiproliferative activity against human A427 cells harboring KRAS mutant after 72 hrs by ATP ViaLight assay. In kind it is functional, cell-based. The following applies: A-427, 72 h.
The next test relates to NCI-H1437. As to the kind of experiment: Antiproliferative activity against human NCI-H1437 cells after 72 hrs by ATP ViaLight assay. In kind it is functional, cell-based. The following applies: NCI-H1437, 72 h.
The nature of test [6]: Antiproliferative activity against PTEN-deficient human […] cells after 72 hrs by ATP ViaLight assay. The test is classed as functional, cell-based.
The test system of a further test is A549. As to the kind of experiment: Antiproliferative activity against human A549 cells harboring KRAS mutant after 72 hrs by ATP ViaLight assay. The note with it: A549, 72 h. The test is classed as functional, cell-based.
The subject of a further test is T47D. As to the kind of experiment: Antiproliferative activity against human T47D cells harboring PI3KCA mutant after 72 hrs by ATP ViaLight assay. The test is classed as functional, cell-based.
For a further test, the system named is NCI-H446. As to the kind of experiment: Antiproliferative activity against PTEN-deficient human NCI-H446 cells after 72 hrs by ATP ViaLight assay. In kind it is functional, cell-based. The following applies: NCI-H446, 72 h.
Another test deals with MCF7. As to the kind of experiment: Antiproliferative activity against human MCF7 cells harboring PI3KCA mutant after 72 hrs by ATP ViaLight assay. In kind it is functional, cell-based. The following applies: MCF7, 72 h.
The target in test [7] is T2, 3-phosphoinositide-dependent protein kinase 1. As to the kind of experiment: Inhibition of PDK1 (unknown origin).
The target in test [8] is Serine/threonine-protein kinase mTOR (Homo sapiens, UniProt P42345). As to the kind of experiment: Inhibition of MTOR (unknown origin).

For `O=C(O)CSC(CC(=O)c1ccc(Cl)cc1)c1ccccc1` (configuration not stated), the Activity in test [1] worked out at 34 µM.
In the case of `NC(N)=Nc1ccc(-n2nc(C(F)(F)F)cc2-c2ccc3c(ccc4ccccc43)c2)cc1`, in test [2], the IC50 amounted to 2 µM.
In the case of `COc1ccc(CC(C(=O)O)c2ccccc2)cc1` (configuration not stated), the Activity in test [3] worked out at 33%.
In the case of `O=C(N[C@@H](COc1ccc2[nH]c(=O)[nH]c2c1)c1ccccc1)c1cccn(Cc2ccc(F)c(F)c2)c1=O`, the EC50 (with LNCaP; in the test on LS-513; in test [4]; in the test on MDA-MB-453; in test [5]; in the test on HCT-116) was over 9 µM each time. The EC50 with MDA-MB-231, with PC-3, in the test on BT-474, in the test with UMC-11, in the test on A-427 and in the test with NCI-H1437 was over 9 µM in each case. The EC50 (in [6]; in the test on A549; in the test with T47D; in the test with NCI-H446; in the test on MCF7) was over 9 µM in each case.
On to `O=P(O)(O)O[C@@H]1[C@@H](OP(=O)(O)O)[C@@H](OP(=O)(O)O)[C@@H](OCc2ccccc2)[C@H](OP(=O)(O)O)[C@H]1OP(=O)(O)O`, for which the 50% inhibitory concentration (IC50) is 0.0265 µM in [7] and 1.3 µM in test [8].
